Where two headings read alike, the source gives them in different places.

These results are taken from US20040058380A1 (priority 2002, published 2004).

Experiment in assay [1]: not given
This is another data set of the same source.

Experiment in assay [2]: not given
This is another data set of the same source.

Experiment in assay [3]: not given
This is another data set of the same source.

Take K2HPO4: the “potentiometric selectivity coefficient of DPA sensor (j: interference)” value is 4.44.
As to `O=C(O)C[C@@H](NC(=O)OCc1ccccc1)C(=O)O` [N-CBZ-D-Asp], the D-Asp sensor output in assay [1] (0.20 mM) stood at 47 Mv; in assay [1] (0.33 mM), 55 Mv; in assay [1] (0.50 mM), 62 Mv; in assay [1] (0.64 mM), 68 Mv; in assay [1] (0.79 mM) it was 71 Mv; in assay [1] (0.93 mM), 76 Mv. The D-Asp sensor output in assay [1] (1.49 mM) stood at 100 Mv; in assay [1] (2.79 mM) it was 158 Mv; in assay [1] (4.09 mM), 192 Mv; in assay [1] (5.32 mM) it was 203 Mv. For the same compound, the “potentiometric selectivity coefficient for L-isomer in the presence of D-isomer” value in assay [2] is on record as 9×10^−3. In assay [2] (pH 6.8), the “potentiometric selectivity coefficient for N-CBZ-L-Asp with respect to N-CBZ-D-Asp” value was determined as 0.08.
For `O=C(O)c1cccc(C(=O)O)n1` [DPA, pyridine-2,6-dicarboxylic acid], the “DPA adsorbed in the sensor concentrated versus control” value (pH 7.2) turned out to be 23 times.
As for `O=P(O)(O)O` [H3PO4], the “potentiometric selectivity coefficient of MPA sensor to interferences” value in assay [3] is 7.5×10^−3.
For the compound `NC(Cc1c[nH]c2ccccc12)C(=O)O` (racemic) [DL-tryptophan], the “potentiometric selectivity coefficient of DPA sensor (j: interference)” value is given as 2.22 × 10^−3.
Turning to `O=C(O)C[C@@H](O)C(=O)O` [D(+)-malic acid], the “potentiometric selectivity coefficient of DPA sensor (j: interference)” value was determined as 35.56.
Consider `N[C@@H](Cc1ccc(O)cc1)C(=O)O` [L-tyrosine], for which the “potentiometric selectivity coefficient of DPA sensor (j: interference)” value is recorded as 2.22 × 10^−3.
Consider `O=C(O)C[C@H](NC(=O)OCc1ccccc1)C(=O)O` [N-CBZ-L-Asp], for which the “potentiometric selectivity coefficient for D-isomer in the presence of L-isomer” value in assay [1] is reported as 4×10^−3. Further, the L-Asp sensor output came out at 37 mV in assay [2] (0.095 mM); 49 mV in assay [2] (0.20 mM); 59 mV in assay [2] (0.33 mM); 65 mV in assay [2] (0.50 mM); 72 mV in assay [2] (0.64 mM); 78 mV in assay [2] (0.79 mM). The L-Asp sensor output in assay [2] (0.93 mM) came to 84 mV; in assay [2] (1.49 mM) it was 114 mV; in assay [2] (2.79 mM), 172 mV; in assay [2] (4.09 mM), 205 mV; in assay [2] (5.32 mM), 222 mV.
With `Cc1cc2nc3c(=O)[nH]c(=O)nc-3n(C[C@H](O)[C@H](O)[C@H](O)CO)c2cc1C` [riboflavin], the “potentiometric selectivity coefficient of DPA sensor (j: interference)” value was 7.78.
On the same count and under the same terms, the same measure for CaCO3: 2.22; for KCl: 44.4.
For `COC(=O)C=C(C)OP(=O)(OC)OC` [phosdrin], the “potentiometric selectivity coefficient of MPA sensor to interferences” value in assay [3] is 3.33 × 10^−4.
Consider NaCl, for which the “potentiometric selectivity coefficient of DPA sensor (j: interference)” value worked out at 20.
